Data set [1] has as its target 3',5'-cyclic-AMP phosphodiesterase 4C (Homo sapiens) (UniProt Q08493). Kind of data set: Panlabs assay PDE4C1. Further details: compound concentration 10 uM; call rule not given here. The settings on record: at 10 µM.
The target in data set [2] is Dual specificity calcium/calmodulin-dependent 3',5'-cyclic nucleotide phosphodiesterase 1A (Homo sapiens) (UniProt P54750). Put plainly: Panlabs assay PDE1A. Particulars: at 10 µM. On the set-up: compound concentration 10 uM.
The target of data set [3] is 3',5'-cyclic-AMP phosphodiesterase 4D (Homo sapiens) (UniProt Q08499). Put plainly: Panlabs assay PDE4D2. On the set-up: compound concentration 10 uM. The settings on record: at 10 µM.
Data set [4] concerns the target 3',5'-cyclic-AMP phosphodiesterase 7B (Homo sapiens, UniProt Q9NP56). Kind of data set: Panlabs assay PDE7B. On the set-up: compound concentration 10 uM. Particulars: at 10 µM.
Data set [5] addresses cGMP-inhibited 3',5'-cyclic phosphodiesterase 3A (Homo sapiens) (UniProt Q14432). Kind of data set: Panlabs assay PDE3A. On the set-up: compound concentration 10 uM. Particulars: at 10 µM.
In data set [6] the target is cGMP-inhibited 3',5'-cyclic phosphodiesterase 3B (Homo sapiens, UniProt Q13370). Put plainly: 3H-cAMP and 3H-cGMP Scintillation Proximity Assay (PDE3B).
The target of data set [7] is Sigma non-opioid intracellular receptor 1 (Homo sapiens) (UniProt Q99720). Kind of data set: Sigma1 Eurofins Panlabs panel. The settings on record: Compound concentration 10.0 uM.
Chain of Sigma non-opioid intracellular receptor 1 (Homo sapiens) (Q99720 whole entry): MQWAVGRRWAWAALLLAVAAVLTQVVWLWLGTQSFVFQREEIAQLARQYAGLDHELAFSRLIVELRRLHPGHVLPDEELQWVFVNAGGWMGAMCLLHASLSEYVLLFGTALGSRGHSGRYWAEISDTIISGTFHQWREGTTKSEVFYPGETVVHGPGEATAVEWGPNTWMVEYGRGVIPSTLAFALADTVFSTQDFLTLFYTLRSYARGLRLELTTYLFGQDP
For data set [8], the target named is Nitric oxide synthase 1 (Rattus norvegicus) (UniProt P29476). Put plainly: Nitric Oxide Synthase, Neuronal (nNOS) Eurofins Panlabs panel. Particulars: Compound concentration 10.0 uM.
In data set [9] the target is Type-1 angiotensin II receptor (Homo sapiens) (UniProt P30556). Put plainly: Angiotensin AT1 Eurofins Panlabs panel. Particulars: Compound concentration 10.0 uM.
Chain of Type-1 angiotensin II receptor (Homo sapiens) (P30556 whole entry): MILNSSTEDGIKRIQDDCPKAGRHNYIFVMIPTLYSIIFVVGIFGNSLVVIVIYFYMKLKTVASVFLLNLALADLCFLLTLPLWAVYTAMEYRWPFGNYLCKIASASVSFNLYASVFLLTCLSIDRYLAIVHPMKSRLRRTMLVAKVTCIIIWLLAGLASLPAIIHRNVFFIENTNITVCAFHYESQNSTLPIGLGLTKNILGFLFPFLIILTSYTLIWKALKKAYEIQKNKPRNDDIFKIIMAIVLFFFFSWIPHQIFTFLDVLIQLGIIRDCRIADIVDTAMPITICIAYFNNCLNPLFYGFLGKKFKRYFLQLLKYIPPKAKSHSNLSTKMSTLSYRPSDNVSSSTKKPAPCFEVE
Data set [10] deals with 3-hydroxy-3-methylglutaryl-coenzyme A reductase (Homo sapiens) (UniProt P04035). Kind of data set: HMG-CoA Reductase Eurofins Panlabs panel. Particulars: Compound concentration 10.0 uM.
Data set [11] deals with L-type calcium channel, benzothiazepine site (Rattus norvegicus, UniProt P22002+P27732+Q02485). Kind of data set: Calcium Channel L-Type, Benzothiazepine Eurofins Panlabs panel. Particulars: compound concentration 10 uM. The format is protein assay.
The target in data set [12] is Muscarinic acetylcholine receptor M5 (Homo sapiens) (UniProt P08912). Particulars: Compound concentration 10.0 uM.
Chain of Muscarinic acetylcholine receptor M5 (Homo sapiens) (P08912 whole entry): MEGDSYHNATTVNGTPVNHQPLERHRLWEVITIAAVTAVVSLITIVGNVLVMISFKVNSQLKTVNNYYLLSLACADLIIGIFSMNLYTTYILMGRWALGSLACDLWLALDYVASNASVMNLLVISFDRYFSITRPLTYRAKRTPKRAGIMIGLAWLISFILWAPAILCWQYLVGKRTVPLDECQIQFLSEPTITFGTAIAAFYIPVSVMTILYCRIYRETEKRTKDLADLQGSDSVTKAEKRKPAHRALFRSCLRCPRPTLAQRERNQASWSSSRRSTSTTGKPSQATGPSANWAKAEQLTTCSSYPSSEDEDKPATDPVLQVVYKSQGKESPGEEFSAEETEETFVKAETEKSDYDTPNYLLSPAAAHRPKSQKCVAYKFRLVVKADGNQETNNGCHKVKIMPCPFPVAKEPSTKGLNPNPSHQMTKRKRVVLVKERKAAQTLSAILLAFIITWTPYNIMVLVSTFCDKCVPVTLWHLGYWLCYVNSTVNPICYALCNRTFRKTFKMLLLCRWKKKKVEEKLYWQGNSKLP
In data set [13] the target is Endothelin-1 receptor (Homo sapiens) (UniProt P25101). Put plainly: Endothelin ETA Eurofins Panlabs panel. The settings on record: Compound concentration 10.0 uM.
The target of data set [14] is Histamine H1 receptor (Homo sapiens) (UniProt P35367). Kind of data set: Histamine H1 Eurofins Panlabs panel. The settings on record: Compound concentration 10.0 uM.
Chain of Histamine H1 receptor (Homo sapiens) (P35367 whole entry): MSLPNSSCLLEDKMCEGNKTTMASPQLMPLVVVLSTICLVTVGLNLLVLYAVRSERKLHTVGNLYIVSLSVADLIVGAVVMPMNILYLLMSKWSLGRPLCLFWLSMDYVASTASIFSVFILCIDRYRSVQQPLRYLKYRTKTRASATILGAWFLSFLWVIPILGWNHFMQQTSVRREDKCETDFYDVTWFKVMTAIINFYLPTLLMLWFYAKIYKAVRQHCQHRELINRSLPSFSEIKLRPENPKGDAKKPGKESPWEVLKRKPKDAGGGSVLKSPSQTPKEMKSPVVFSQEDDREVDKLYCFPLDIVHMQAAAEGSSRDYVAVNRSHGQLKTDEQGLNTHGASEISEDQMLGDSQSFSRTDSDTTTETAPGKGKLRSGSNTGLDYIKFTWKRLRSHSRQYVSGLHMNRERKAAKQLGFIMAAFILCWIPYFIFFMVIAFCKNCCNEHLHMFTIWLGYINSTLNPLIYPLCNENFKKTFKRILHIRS
Data set [15] deals with D(3) dopamine receptor (Homo sapiens) (UniProt P35462). Put plainly: Dopamine D3 Eurofins Panlabs panel. Particulars: Compound concentration 10.0 uM.
Chain of D(3) dopamine receptor (Homo sapiens) (P35462 whole entry): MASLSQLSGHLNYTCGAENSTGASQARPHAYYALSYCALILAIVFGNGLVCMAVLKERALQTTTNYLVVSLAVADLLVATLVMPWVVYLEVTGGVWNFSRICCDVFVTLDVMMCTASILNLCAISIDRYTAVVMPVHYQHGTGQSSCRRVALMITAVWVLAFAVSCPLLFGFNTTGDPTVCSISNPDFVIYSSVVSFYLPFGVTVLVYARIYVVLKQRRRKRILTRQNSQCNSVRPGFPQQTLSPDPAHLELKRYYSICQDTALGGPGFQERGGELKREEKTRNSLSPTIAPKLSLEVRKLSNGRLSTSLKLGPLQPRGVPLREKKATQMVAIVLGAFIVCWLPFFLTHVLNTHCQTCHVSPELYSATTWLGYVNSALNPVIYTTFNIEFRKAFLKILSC
Data set [16] deals with Endothelin receptor type B (Homo sapiens) (UniProt P24530). Put plainly: Endothelin ETB Eurofins Panlabs panel. The settings on record: Compound concentration 10.0 uM.
Chain of Endothelin receptor type B (Homo sapiens) (P24530 whole entry): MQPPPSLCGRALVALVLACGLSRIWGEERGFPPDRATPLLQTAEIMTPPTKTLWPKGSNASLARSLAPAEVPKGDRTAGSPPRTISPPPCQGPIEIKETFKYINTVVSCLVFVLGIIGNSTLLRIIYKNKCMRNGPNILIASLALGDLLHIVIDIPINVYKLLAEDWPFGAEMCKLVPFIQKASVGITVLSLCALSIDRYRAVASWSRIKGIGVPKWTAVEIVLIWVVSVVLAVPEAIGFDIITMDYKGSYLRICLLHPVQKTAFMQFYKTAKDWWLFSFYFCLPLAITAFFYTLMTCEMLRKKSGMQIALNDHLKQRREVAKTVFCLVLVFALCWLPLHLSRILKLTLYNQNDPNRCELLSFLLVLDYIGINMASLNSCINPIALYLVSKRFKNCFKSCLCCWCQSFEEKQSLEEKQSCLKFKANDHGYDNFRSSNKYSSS
Data set [17] addresses Glutamate receptor ionotropic, AMPA (Rattus norvegicus) (UniProt P19491+P19492+P19493+P19490). Put plainly: Glutamate, AMPA Eurofins Panlabs panel. The format is protein-complex assay. Particulars: Compound concentration 10.0 uM.
Data set [18] deals with Voltage-gated sodium channel, site 2 (Rattus norvegicus, UniProt F1LQQ7+O08562+O88420+O88457+P04774+P04775+P08104+P15389+P15390+Q62968). Put plainly: Sodium Channel, Site 2 Eurofins Panlabs panel. The class given is protein assay. Particulars: compound concentration 10 uM.
The target of data set [19] is T1, Alpha-2B adrenergic receptor (Homo sapiens) (UniProt P18089).
T1 sequence (whole entry): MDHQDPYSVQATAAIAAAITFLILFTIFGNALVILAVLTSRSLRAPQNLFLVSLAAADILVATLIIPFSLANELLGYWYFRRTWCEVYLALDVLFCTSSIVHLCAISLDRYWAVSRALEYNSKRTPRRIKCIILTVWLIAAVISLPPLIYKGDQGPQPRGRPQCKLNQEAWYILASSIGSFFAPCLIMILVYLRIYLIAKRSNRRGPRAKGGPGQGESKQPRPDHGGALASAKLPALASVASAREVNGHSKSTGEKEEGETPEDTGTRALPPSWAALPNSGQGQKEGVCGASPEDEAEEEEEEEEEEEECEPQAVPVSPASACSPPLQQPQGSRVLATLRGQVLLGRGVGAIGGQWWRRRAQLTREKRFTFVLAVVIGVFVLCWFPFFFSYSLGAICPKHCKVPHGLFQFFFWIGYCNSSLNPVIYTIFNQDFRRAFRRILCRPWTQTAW
Kind of data set: Adrenergic alpha2B Eurofins Panlabs panel. The settings on record: Compound concentration 10.0 uM.

For data set [20], the target named is 5-hydroxytryptamine receptor 2B (Homo sapiens) (UniProt P41595). Kind of data set: Serotonin (5-Hydroxytryptamine) 5-HT2B Eurofins Panlabs panel. The settings on record: Compound concentration 10.0 uM.
Chain of 5-hydroxytryptamine receptor 2B (Homo sapiens) (P41595 whole entry): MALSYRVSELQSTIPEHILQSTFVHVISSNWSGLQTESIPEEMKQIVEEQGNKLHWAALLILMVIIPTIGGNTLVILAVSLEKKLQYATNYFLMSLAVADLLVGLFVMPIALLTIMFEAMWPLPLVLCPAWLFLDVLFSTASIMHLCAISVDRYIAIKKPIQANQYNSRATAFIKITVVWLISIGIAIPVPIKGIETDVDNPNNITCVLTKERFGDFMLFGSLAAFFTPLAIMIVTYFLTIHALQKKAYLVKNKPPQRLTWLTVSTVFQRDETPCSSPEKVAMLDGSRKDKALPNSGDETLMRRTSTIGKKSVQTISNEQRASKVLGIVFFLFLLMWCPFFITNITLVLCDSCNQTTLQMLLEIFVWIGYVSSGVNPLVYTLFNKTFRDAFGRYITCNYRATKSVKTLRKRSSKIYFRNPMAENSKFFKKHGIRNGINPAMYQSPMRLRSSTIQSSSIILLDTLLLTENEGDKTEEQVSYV
The target in data set [21] is Sodium-dependent dopamine transporter (Homo sapiens) (UniProt Q01959). Kind of data set: Uptake, Dopamine - Antagonist Eurofins Panlabs panel. The settings on record: Compound concentration 10.0 uM.
Chain of Sodium-dependent dopamine transporter (Homo sapiens) (Q01959 whole entry): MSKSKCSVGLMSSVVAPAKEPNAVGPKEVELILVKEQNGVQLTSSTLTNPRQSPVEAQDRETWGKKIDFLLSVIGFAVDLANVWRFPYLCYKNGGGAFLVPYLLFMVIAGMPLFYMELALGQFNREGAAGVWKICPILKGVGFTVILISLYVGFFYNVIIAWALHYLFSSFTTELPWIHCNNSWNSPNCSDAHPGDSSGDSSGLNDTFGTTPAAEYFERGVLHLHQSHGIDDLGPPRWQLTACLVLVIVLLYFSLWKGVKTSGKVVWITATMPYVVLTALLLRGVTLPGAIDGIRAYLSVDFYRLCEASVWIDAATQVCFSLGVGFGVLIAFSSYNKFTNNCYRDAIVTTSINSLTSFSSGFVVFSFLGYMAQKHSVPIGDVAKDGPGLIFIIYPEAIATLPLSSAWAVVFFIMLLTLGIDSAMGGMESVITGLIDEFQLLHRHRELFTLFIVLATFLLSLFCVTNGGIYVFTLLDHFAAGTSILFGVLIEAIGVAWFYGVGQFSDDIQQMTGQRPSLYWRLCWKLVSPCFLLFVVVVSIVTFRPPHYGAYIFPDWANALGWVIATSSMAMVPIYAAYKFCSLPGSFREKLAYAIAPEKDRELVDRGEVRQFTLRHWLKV
Data set [22] is filed under the species Rattus norvegicus. Put plainly: Imidazoline I2, Central Eurofins Panlabs panel. The settings on record: Compound concentration 10.0 uM.
The target in data set [23] is Glutamate NMDA receptor (Rattus norvegicus) (UniProt P35439+Q00959+Q00960+Q00961+Q62645+Q8VHN2+Q9R1M7). Put plainly: Glutamate, NMDA, Glycine Eurofins Panlabs panel. Particulars: Compound concentration 10.0 uM. The format is protein-complex assay.
Data set [24] deals with Phosphodiesterase 6. Put plainly: 3H-cAMP and 3H-cGMP Scintillation Proximity Assay (PDE6). The format is tissue-based, Bos taurus, retina.
The target in data set [25] is Glucocorticoid receptor (Homo sapiens) (UniProt P04150). Put plainly: Glucocorticoid Eurofins Panlabs panel. Particulars: Compound concentration 10.0 uM.
Data set [26] has as its target P2X receptor (Rattus norvegicus) (UniProt P51579+P49653+P51578+Q64663+P47824+P51577+P49654). Kind of data set: Purinergic P2X Eurofins Panlabs panel. The class given is protein assay. Particulars: concentration not given here.
Data set [27] addresses Thromboxane-A synthase (Homo sapiens) (UniProt P24557). Put plainly: Thromboxane Synthase Eurofins Panlabs panel. The settings on record: concentration not given here.
The target of data set [28] is T2, 5-hydroxytryptamine receptor 1A (Homo sapiens) (UniProt P08908).
T2 sequence (whole entry): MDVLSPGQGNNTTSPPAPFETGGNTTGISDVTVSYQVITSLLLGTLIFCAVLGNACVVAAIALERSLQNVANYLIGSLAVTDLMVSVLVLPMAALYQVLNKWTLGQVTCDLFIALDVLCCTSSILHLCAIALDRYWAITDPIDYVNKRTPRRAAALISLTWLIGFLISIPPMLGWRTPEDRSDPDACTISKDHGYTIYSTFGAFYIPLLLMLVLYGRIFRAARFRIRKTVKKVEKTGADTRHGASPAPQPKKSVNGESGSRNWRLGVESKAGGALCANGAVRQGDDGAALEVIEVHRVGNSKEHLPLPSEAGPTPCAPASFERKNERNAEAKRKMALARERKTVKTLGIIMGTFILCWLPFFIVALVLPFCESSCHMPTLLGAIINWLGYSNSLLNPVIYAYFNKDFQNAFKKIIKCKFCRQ
Kind of data set: Serotonin (5-Hydroxytryptamine) 5-HT1A Eurofins Panlabs panel. The settings on record: Compound concentration 10.0 uM.

The target in data set [29] is Beta-1 adrenergic receptor (Homo sapiens) (UniProt P08588). Kind of data set: Adrenergic beta1 Eurofins Panlabs panel. The settings on record: Compound concentration 10.0 uM.
In data set [30] the target is Nicotinic Acetylcholine Receptor (Homo sapiens) (UniProt P02708+P07510+P11230+P17787+P30926+P32297+P43681+Q07001+Q15822+Q9UGM1+Q15825+P30532+Q04844+P36544+Q9GZZ6+Q05901). Put plainly: Nicotinic Acetylcholine Eurofins Panlabs panel. The settings on record: Compound concentration 10.0 uM. The format is protein-complex assay.
Data set [31] deals with D(1A) dopamine receptor (Homo sapiens) (UniProt P21728). Put plainly: Dopamine D1 Eurofins Panlabs panel. Particulars: Compound concentration 10.0 uM.
Chain of D(1A) dopamine receptor (Homo sapiens) (P21728 whole entry): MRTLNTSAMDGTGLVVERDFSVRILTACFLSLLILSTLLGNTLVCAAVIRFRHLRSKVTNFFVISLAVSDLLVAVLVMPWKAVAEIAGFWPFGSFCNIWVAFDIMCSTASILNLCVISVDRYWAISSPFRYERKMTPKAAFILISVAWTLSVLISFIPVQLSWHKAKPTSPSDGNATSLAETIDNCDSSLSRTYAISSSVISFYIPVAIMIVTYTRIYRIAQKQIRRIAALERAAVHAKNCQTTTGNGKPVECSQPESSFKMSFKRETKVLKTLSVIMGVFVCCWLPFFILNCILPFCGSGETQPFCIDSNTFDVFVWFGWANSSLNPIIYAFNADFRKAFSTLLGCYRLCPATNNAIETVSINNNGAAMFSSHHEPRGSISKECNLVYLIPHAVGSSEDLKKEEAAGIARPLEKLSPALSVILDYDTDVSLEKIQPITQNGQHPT

Results on two compounds are retold here after ChEMBL document CHEMBL5303765, “Data for DCP probe BAY-7081” (2023).

Chain of 3',5'-cyclic-AMP phosphodiesterase 7B (Q9NP56 whole entry): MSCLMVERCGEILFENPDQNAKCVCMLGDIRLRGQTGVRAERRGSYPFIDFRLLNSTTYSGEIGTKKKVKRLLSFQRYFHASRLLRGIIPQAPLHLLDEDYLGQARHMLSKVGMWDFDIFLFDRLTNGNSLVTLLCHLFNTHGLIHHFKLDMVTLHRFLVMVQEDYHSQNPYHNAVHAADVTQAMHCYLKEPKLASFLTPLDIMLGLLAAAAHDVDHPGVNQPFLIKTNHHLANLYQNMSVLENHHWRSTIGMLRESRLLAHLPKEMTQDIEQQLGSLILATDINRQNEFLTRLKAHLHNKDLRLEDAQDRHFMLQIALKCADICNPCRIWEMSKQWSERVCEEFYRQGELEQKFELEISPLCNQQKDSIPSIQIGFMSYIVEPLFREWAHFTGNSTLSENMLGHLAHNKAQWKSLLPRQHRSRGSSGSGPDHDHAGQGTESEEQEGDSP
Chain of Thromboxane-A synthase (Homo sapiens) (P24557 whole entry): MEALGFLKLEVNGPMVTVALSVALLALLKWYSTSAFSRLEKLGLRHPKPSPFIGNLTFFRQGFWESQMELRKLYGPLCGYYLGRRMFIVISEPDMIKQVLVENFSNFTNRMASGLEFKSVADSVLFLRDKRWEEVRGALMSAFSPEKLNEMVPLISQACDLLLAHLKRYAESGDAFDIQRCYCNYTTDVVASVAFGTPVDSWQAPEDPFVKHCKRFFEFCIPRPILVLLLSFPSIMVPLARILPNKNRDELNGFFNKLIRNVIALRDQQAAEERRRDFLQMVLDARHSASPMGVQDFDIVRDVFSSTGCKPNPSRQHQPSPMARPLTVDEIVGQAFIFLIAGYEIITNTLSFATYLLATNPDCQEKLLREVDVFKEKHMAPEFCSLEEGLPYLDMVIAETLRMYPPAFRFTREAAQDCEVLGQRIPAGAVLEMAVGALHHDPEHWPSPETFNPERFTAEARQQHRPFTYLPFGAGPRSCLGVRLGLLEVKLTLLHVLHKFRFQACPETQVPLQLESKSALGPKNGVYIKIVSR

On to `CCC[C@@H]1CNCc2c1[nH]c(=O)c(C#N)c2N1CCC2(CC1)CC2`, for which the inhibition in data set [1] was 28.6%; in data set [2] it was 7.7%; in data set [3], 19.1%; in data set [4] it was -2.1%; in [5], -1.3%.

Take `CCC[C@H]1CNCc2c1[nH]c(=O)c(C#N)c2N1CCC2(CC1)CC2`: the IC50 was > 10 µM (not active) in [6] and 1.56 µM in [24]. For the same compound, the inhibition in [7] was -4%; in data set [8], -2%; in data set [9], 5%; in data set [10], 8%; in data set [12], -6.97%; in [13], 3%. The inhibition in [14] is 5%; in [15] it was 2%; in data set [16] it was 8%; in data set [17], -2%; in data set [19] it was 7%; in data set [20], 13%. Also, the inhibition is 22% in data set [21]; 32.5% in data set [22]; -2% in data set [23]; 4.67% in data set [25]; 0% in [26]; 0% in [27]. Moreover, the inhibition in data set [28] was found to be 10%; in [29], 5.2%; in data set [30], 5%; in [31] it was 1%. In addition, the results for the inhibition at 10 µM in data set [11] and in data set [18] were 18.5% and -4%, respectively.
